# Results reported in patent US10815238B2, “Antimicrobial compounds and methods of making and using the same” (BIOVERSYS AG, priority 2013, dated 2020).
# Tested on: Eschericia coli (E. coli) strain ATCC25922
# Experiment: Standard microdilution assay, MIC against E. coli ATCC25922
# Assay type: cell-based
# Details: Escherichia coli; E. coli strain ATCC25922, standard microdilution assay; cutoff 16 micrograms/mL; read-out: MIC E. Coli
# In short: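 MIC determined by broth microdilution following CLSI protocols, with reference strains run in parallel for quality control. Activity scored +/− at a cutoff of 16 micrograms/mL.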
row,Compound,MIC [µg/mL]
1,C[C@H](N)CCCc1cc(Cl)c(F)c(-c2cc3cn(-c4ccc(CNCC[C@@H](NC(=N)N)C5CC5)cc4)c(=O)nc3[nH]2)c1 [Compound 174],< 16
2,C[C@H](N)CCCc1cc(Cl)c(F)c(-c2cc3cn(-c4ccc(CN[C@H](C)CCNC(=N)N)cc4)c(=O)nc3[nH]2)c1 [Compound 209],< 16
3,COc1ccc(CNCc2ccc(-n3cc4cc[nH]c4nc3=O)cc2)cn1 [Compound 144],> 16
4,C[C@H](NCCCNC(=N)N)c1ccc(-n2cc3cc(-c4cc(SC(F)(F)F)cc([C@H](O)CC[C@@H](N)CCO)c4)[nH]c3nc2=O)cc1 [Compound 133],< 16
5,COC[C@H](N)CCCc1cc(SC(F)(F)F)cc(-c2cc3cn(-c4ccc([C@H](C)NCCCNC(=N)N)cc4)c(=O)nc3[nH]2)c1 [Compound 130],< 16
6,N=C(N)NCCCNCc1ccc(-n2cc3cc(-c4ccc(/C=C/C5CN(C(=N)N)C5)cc4)[nH]c3nc2=O)cc1 [Compound 50],< 16
7,C[C@H](N)CCCc1cc(Cl)c(F)c(-c2cc3cn(-c4ccc([C@@H](CO)NCCCNC(=N)N)cc4)c(=O)nc3[nH]2)c1 [Compound 44],< 16
8,C[C@H](N)CCCc1cc(Cl)c(F)c(-c2cc3cn(-c4ccc(CNCC(=O)O)cc4)c(=O)nc3[nH]2)c1 [Compound 115],> 16
9,C[C@H](N)CCCc1cc(Cl)c(F)c(-c2cc3cn(-c4ccc([C@@H](CCc5ccncc5)NCCCNC(=N)N)cc4)c(=O)nc3[nH]2)c1 [Compound 69],< 16
10,C[C@H](N)CCCc1cc(-c2cc3cn(-c4ccc(CN5CCCN(C(=N)N)CC5)cc4)c(=O)nc3[nH]2)cc(C(F)(F)F)c1 [Compound 52],< 16
11,C[C@H](N)CCCc1cc(Cl)c(F)c(-c2cc3cn(-c4ccc([C@H](CCCO)NCCCNC(=N)N)cc4)c(=O)nc3[nH]2)c1 [Compound 99],< 16
12,C[C@H](N)CCCc1cc(SC(F)(F)F)cc(-c2cc3cn(-c4ccc([C@@H](NCCCNC(=N)N)C(N)=O)cc4)c(=O)nc3[nH]2)c1 [Compound 58],< 16
13,C[C@H](N)CCCc1cc(SC(F)(F)F)cc(-c2cc3cn(-c4ccc(CNCC(=O)O)cc4)c(=O)nc3[nH]2)c1 [Compound 116],> 16
14,C[C@H](NCCCNC(=N)N)c1ccc(-n2cc3cc(-c4cc(COC[C@@H](N)CO)cc(SC(F)(F)F)c4)[nH]c3nc2=O)cc1 [Compound 80],< 16
15,C[C@H](N)CCCc1cc(Cl)c(F)c(-c2cc3cn(-c4ccc([C@H](Cc5cccnc5)NCCCNC(=N)N)cc4)c(=O)nc3[nH]2)c1 [Compound 56],< 16
16,C[C@H](N)CCCc1cc(SC(F)(F)F)cc(-c2cc3cn(-c4ccc([C@H](CCO)NCCCNC(=N)N)cc4)c(=O)nc3[nH]2)c1 [Compound 24],< 16
17,C[C@H](N)CCCc1cc(Cl)c(F)c(-c2cc3cn(-c4ccc(CNCC[C@@H](N)CN)cc4)c(=O)nc3[nH]2)c1 [Compound 182],< 16
18,C[C@H](NCCCNC(=N)N)c1ccc(-n2cc3cc(-c4cc(CCC[C@@H](N)CO)cc(C(F)(F)F)c4)[nH]c3nc2=O)cc1 [Compound 242],< 16
19,C[C@H](N)CCCc1cc(-c2cc3cn(-c4ccc([C@@H](NCCCNC(=N)N)C(=O)N5CCNCC5)cc4)c(=O)nc3[nH]2)cc(C(F)(F)F)c1 [Compound 13],< 16

row,Compound,MIC [µg/mL]
1,C[C@H](N)CCCc1cc(-c2cc3cn(-c4ccc([C@H](Cc5c[nH]nn5)NCCCNC(=N)N)cc4)c(=O)nc3[nH]2)cc(C(F)(F)F)c1 [Compound 47],< 16
2,C[C@H](NCCCNC(=N)N)c1ccc(-n2cc3cc(-c4cc(CO[C@H](CN)CO)cc(SC(F)(F)F)c4)[nH]c3nc2=O)cc1 [Compound 55],< 16
3,C[C@H](NCCCNC(=N)N)c1ccc(-n2cc3cc(-c4cc([C@H](O)CC[C@@H](C)N)cc(C(F)(F)F)c4)[nH]c3nc2=O)cc1 [Compound 20],< 16
4,C=C[C@@H](N)CC[C@@H](O)c1cc(SC(F)(F)F)cc(-c2cc3cn(-c4ccc([C@H](C)NCCCNC(=N)N)cc4)c(=O)nc3[nH]2)c1 [Compound 79],< 16
5,N=C(N)N1CCN(Cc2ccc(-n3cc4cc(-c5ccc(C(NC6CN(C(=N)N)C6)C(F)(F)F)cc5)[nH]c4nc3=O)cc2)CC1 (stereo not drawn) [Compound 54],< 16
6,C[C@H](N)CCCc1cc(Cl)c(F)c(-c2cc3cn(-c4ccc(CN[C@@H](CO)CCNC(=N)N)cc4)c(=O)nc3[nH]2)c1 [Compound 273],< 16
7,COc1ccc([C@@H](c2ccc(SC)cc2)c2ccc(-n3cc4cc(-c5cc(CCC[C@H](C)N)cc(SC(F)(F)F)c5)[nH]c4nc3=O)cc2)cc1 [Compound 9],> 16
8,C[C@H](N)CCCc1cc(Cl)c(F)c(-c2cc3cn(-c4ccc(CNCC(=N)N)cc4)c(=O)nc3[nH]2)c1 [Compound 169],> 16
9,COc1ccc(CNCc2ccc(-n3cc4cc(-c5cc(CCC[C@H](C)N)cc(Cl)c5F)[nH]c4nc3=O)cc2)cn1 [Compound 145],> 16
10,C[C@H](N)CCCc1cc(-c2cc3cn(-c4ccc([C@@H](NCCCNC(=N)N)c5ccc(S(C)(=O)=O)cc5)cc4)c(=O)nc3[nH]2)cc(C(F)(F)F)c1 [Compound 60],> 16
11,C[C@H](N)CCCc1cc(Cl)c(F)c(-c2cc3cn(-c4ccc([C@H](CO)NCCCNC(=N)N)cc4)c(=O)nc3[nH]2)c1 [Compound 103],< 16
12,COc1ccc(Cn2cc(C[C@H](NCCCNC(=N)N)c3ccc(-n4cc5cc(-c6cc(CCC[C@H](C)N)cc(C(F)(F)F)c6)[nH]c5nc4=O)cc3)nn2)cc1 [Compound 42],< 16
13,C[C@H](N)CCCc1cc(SC(F)(F)F)cc(-c2cc3cn(-c4ccc([C@H](CCF)NCCCNC(=N)N)cc4)c(=O)nc3[nH]2)c1 [Compound 75],< 16
14,C[C@H](NCCCNC(=N)N)c1ccc(-n2cc3cc(-c4cc(OC(F)(F)F)cc([C@H]5C[C@H](N)CCO5)c4)[nH]c3nc2=O)cc1 [Compound 36],< 16
15,C[C@H](N)CCCc1cc(-c2cn3cc(-c4ccc([C@H](C)NCCCNC(=N)N)cc4)c(=O)nc3[nH]2)cc(C(F)(F)F)c1 [Compound 298],< 16
16,CCc1c(F)c(CCC[C@H](C)N)cc(-c2cc3cn(-c4ccc([C@H](C)NCCCNC(=N)N)cc4)c(=O)nc3[nH]2)c1F [Compound 218],< 16
17,CC(N)CC[C@@H](O)c1cc(-c2cc3cn(-c4ccc([C@H](C)NCCCNC(=N)N)cc4)c(=O)nc3[nH]2)cc(C(F)(F)F)c1 (stereo partly drawn) [Compound 22],< 16
18,C[C@H](N)CCCc1cc(Cl)c(F)c(-c2cc3cn(-c4ccc(CN[C@H](CO)CCNC(=N)N)cc4)c(=O)nc3[nH]2)c1 [Compound 249],< 16
19,C[C@H](N)CCCc1cc(Cl)c(F)c(-c2cc3cn(-c4ccc([C@H](N)C(=O)NCCN)cc4)c(=O)nc3[nH]2)c1 [Compound 254],< 16

# More lines, now with the values ahead:
row,MIC [µg/mL],Compound
1,< 16,C[C@H](N)CCCc1cc(Cl)c(F)c(-c2cc3cn(-c4ccc([C@H](C)NCC[C@H](CO)NC(=N)N)cc4)c(=O)nc3[nH]2)c1 [Compound 262]
2,< 16,CC[C@@H](CCNCc1ccc(-n2cc3cc(-c4cc(CCC[C@H](C)N)cc(Cl)c4F)[nH]c3nc2=O)cc1)NC(=N)N [Compound 183]
3,< 16,C[C@H](N)CCCc1cc(OC(F)(F)F)c(F)c(-c2cc3cn(-c4ccc(CN[C@H](C)CCNC(=N)N)cc4)c(=O)nc3[nH]2)c1 [Compound 228]
4,< 16,C[C@H](N)CCCc1cc(-c2cc3cn(-c4ccc([C@H](C)NCC[C@@H](C)N)cc4)c(=O)nc3[nH]2)cc(C(F)(F)F)c1 [Compound 199]
5,< 16,C[C@H](N)CCCc1cc(OC(F)(F)F)c(F)c(-c2cc3cn(-c4ccc([C@H](C)NCC[C@H](CCCN)NC(=N)N)cc4)c(=O)nc3[nH]2)c1 [Compound 284]
6,< 16,C[C@H](N)CCCc1cc(Cl)c(F)c(-c2cc3cn(-c4ccc([C@H](C)NCC[C@@H](Cc5c[nH]nn5)NC(=N)N)cc4)c(=O)nc3[nH]2)c1 [Compound 266]
7,< 16,C[C@H](N)CCCc1cc(Cl)c(F)c(-c2cc3cn(-c4ccc(CNCC[C@H](CN)NC(=N)N)cc4)c(=O)nc3[nH]2)c1 [Compound 203]
8,< 16,C[C@H](N)CC[C@@H](O)c1cc(OC(F)(F)F)cc(-c2cc3cn(-c4ccc([C@H](C)NCCCNC(=N)N)cc4)c(=O)nc3[nH]2)c1 [Compound 34]
9,< 16,C[C@H](N)CCCc1cc(Cl)c(F)c(-c2cc3cn(-c4ccc([C@H](C)NCCC(CC(O)CO)NC(=N)N)cc4)c(=O)nc3[nH]2)c1 (stereo partly drawn) [Compound 270]
10,< 16,C[C@H](N)CCCc1cc(Cl)c(F)c(-c2cc3cn(-c4ccc(CN[C@@H](C)CCNC(=N)N)cc4)c(=O)nc3[nH]2)c1 [Compound 195]
11,< 16,C/C=C/C[C@H](CCN[C@@H](C)c1ccc(-n2cc3cc(-c4cc(CCC[C@H](C)N)cc(OC(F)(F)F)c4F)[nH]c3nc2=O)cc1)NC(=N)N [Compound 292]
12,< 16,C=CC[C@@H](CCN[C@@H](C)c1ccc(-n2cc3cc(-c4cc(CCC[C@H](C)N)cc(OC(F)(F)F)c4F)[nH]c3nc2=O)cc1)NC(=N)N [Compound 261]
13,< 16,C[C@H](N)CCCc1cc(Cl)c(F)c(-c2cc3cn(-c4ccc([C@H](C)NCC[C@@H](CC#N)NC(=N)N)cc4)c(=O)nc3[nH]2)c1 [Compound 297]
14,< 16,C[C@H](N)CCCc1cc(Cl)c(F)c(-c2cc3cn(-c4ccc([C@H](C)NCC[C@H](CS(C)(=O)=O)NC(=N)N)cc4)c(=O)nc3[nH]2)c1 [Compound 289]
15,< 16,C[C@H](N)CCCc1cc(Cl)c(F)c(-c2cc3cn(-c4ccc([C@H](C)NCC[C@H](CCCN)NC(=N)N)cc4)c(=O)nc3[nH]2)c1 [Compound 282]
16,< 16,C=CC[C@@H](NCCCNC(=N)N)c1ccc(-n2cc3cc(-c4cc(CCC[C@H](C)N)cc(Cl)c4F)[nH]c3nc2=O)cc1 [Compound 3]
17,< 16,C[C@H](N)CCCc1cc(OC(F)(F)F)c(F)c(-c2cc3cn(-c4ccc(CN[C@H](CO)CCNC(=N)N)cc4)c(=O)nc3[nH]2)c1 [Compound 250]
18,< 16,C[C@H](N)CCCc1cc(Cl)c(F)c(-c2cc3cn(-c4ccc([C@H](C)NCC[C@H](C)N)cc4)c(=O)nc3[nH]2)c1 [Compound 221]
19,< 16,C[C@H](N)CCCc1cc(OC(F)(F)F)c(F)c(-c2cc3cn(-c4ccc([C@H](C)NCC[C@@H](CO)NC(=N)N)cc4)c(=O)nc3[nH]2)c1 [Compound 265]
